ChEMBL document CHEMBL1201862, “PubChem BioAssay data set” (2004)
Calls of active or inactive are those of the source.

Tests used:
Assay type in all cases: functional
[1] = biological target: T1, Serine/threonine-protein kinase TAO1 (Homo sapiens, UniProt Q7L7X3)
T1 sequence (Q7L7X3 whole entry): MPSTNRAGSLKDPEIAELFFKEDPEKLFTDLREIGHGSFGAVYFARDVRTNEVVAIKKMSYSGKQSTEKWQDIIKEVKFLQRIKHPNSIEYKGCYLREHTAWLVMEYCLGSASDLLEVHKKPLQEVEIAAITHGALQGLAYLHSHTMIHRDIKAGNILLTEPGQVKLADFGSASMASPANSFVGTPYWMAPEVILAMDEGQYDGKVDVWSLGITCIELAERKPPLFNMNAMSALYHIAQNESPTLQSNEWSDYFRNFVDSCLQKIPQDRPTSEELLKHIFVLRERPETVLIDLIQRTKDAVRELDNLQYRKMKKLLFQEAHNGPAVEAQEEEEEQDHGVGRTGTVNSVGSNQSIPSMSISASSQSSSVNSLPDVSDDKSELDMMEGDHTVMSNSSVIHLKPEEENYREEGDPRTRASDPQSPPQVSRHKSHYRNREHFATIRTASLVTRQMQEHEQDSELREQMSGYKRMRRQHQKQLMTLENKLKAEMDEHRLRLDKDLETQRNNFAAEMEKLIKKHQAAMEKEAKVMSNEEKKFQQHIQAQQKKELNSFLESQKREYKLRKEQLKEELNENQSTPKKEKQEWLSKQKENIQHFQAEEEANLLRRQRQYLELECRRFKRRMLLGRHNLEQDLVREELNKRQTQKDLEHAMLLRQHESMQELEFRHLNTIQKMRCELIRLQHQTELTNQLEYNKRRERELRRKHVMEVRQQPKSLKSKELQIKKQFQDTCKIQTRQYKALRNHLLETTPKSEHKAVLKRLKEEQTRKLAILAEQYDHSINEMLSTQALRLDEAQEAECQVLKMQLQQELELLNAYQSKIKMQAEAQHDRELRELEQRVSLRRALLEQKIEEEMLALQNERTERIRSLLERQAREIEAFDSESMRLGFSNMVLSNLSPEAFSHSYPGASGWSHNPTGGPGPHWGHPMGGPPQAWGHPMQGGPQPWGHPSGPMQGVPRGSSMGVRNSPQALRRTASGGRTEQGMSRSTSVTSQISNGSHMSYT

[2] = biological target: Dual specificity tyrosine-phosphorylation-regulated kinase 1B (Homo sapiens, UniProt Q9Y463); assay: Navigating the Kinome. Panel member name: DYRK1B
[3] = biological target: Rho-associated protein kinase 1 (Homo sapiens, UniProt Q13464);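 further: measured within a broad kinome-wide panel profiling many kinases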
[4] = biological target: Dual specificity protein kinase CLK4 (Homo sapiens, UniProt Q9HAZ1)
[5] = biological target: Serine/threonine-protein kinase pim-1 (Homo sapiens, UniProt P11309)
[6] = biological target: Mitogen-activated protein kinase 8 (Homo sapiens, UniProt P45983);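 further: value comes from one member of a kinome-wide kinase profiling panel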
[7] = biological target: Cyclin-dependent kinase 8 (Homo sapiens, UniProt P49336); assay: Navigating the Kinome. Panel member name: CDK8
[8] = biological target: T2, Serine/threonine-protein kinase Chk1 (Homo sapiens, UniProt O14757);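 further: measured as one member of a kinome-wide kinase profiling panel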
T2 sequence (O14757 whole entry): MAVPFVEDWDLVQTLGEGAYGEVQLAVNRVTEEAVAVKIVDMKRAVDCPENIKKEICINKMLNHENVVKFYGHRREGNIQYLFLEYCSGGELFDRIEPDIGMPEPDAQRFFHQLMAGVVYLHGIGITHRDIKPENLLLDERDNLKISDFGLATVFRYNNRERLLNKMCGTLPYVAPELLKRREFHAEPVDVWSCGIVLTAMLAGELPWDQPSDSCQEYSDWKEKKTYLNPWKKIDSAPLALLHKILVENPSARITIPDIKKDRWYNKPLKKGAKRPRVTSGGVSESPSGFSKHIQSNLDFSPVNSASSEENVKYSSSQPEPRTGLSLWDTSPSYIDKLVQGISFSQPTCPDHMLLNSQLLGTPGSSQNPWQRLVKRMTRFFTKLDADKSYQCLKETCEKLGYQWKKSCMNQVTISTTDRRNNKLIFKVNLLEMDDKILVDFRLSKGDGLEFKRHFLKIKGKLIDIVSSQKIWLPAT

[9] = biological target: Tyrosine-protein kinase BTK (Homo sapiens, UniProt Q06187)
[10] = biological target: Serine/threonine-protein kinase PAK 4 (Homo sapiens, UniProt O96013);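 further: value obtained within a kinome profiling panel in which PAK4 was one of the panel members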
[11] = biological target: T3, Serine/threonine-protein kinase D3 (Homo sapiens, UniProt O94806);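 further: determined within a kinase panel screen, with PRKCN as the panel member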
T3 sequence (O94806 whole entry): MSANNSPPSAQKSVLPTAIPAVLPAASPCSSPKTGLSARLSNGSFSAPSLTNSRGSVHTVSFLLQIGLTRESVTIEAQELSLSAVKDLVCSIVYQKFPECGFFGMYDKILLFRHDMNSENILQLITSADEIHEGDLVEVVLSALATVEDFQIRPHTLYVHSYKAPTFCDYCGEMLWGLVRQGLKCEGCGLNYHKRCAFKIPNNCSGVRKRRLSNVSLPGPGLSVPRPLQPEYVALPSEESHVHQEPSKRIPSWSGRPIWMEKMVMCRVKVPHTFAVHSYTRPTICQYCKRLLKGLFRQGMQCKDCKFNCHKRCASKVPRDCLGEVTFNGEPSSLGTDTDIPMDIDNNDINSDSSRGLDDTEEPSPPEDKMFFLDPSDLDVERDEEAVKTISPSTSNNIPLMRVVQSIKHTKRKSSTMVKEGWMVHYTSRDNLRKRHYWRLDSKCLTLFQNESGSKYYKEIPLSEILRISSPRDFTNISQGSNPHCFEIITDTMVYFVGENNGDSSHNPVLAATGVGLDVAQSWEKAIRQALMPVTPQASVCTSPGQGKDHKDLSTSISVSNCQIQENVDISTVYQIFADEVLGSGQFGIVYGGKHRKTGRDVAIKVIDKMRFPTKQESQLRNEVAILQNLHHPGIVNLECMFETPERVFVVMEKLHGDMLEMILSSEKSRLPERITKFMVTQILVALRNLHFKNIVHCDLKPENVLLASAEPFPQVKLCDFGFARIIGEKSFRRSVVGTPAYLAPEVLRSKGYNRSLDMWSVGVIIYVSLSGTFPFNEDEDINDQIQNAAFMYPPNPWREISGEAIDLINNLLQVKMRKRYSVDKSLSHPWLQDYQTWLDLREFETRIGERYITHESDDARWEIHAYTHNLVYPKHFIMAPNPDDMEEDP

[12] = biological target: Death-associated protein kinase 3 (Homo sapiens, UniProt O43293);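 further: measured as one member of a kinome-wide profiling panel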
[13] = biological target: Tyrosine-protein kinase Fyn (Homo sapiens, UniProt P06241)
[14] = biological target: ALK tyrosine kinase receptor (Homo sapiens, UniProt Q9UM73);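 further: ALK tested as one member of a kinase panel screen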

Cyclin-dependent kinase 8, sequence (P49336 whole entry): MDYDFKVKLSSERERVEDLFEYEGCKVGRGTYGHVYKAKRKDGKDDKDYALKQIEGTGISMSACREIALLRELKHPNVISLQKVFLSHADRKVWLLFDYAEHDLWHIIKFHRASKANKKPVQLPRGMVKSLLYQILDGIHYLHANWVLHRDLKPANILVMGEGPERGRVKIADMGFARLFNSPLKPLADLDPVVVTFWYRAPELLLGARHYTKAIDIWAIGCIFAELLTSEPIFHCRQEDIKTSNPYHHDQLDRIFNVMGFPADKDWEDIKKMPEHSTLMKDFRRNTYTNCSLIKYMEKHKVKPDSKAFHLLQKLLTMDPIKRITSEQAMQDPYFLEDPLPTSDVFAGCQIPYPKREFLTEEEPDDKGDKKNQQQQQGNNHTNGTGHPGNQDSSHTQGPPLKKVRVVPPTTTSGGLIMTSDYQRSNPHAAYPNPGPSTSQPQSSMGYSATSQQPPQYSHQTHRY
Dual specificity tyrosine-phosphorylation-regulated kinase 1B, sequence (Q9Y463 whole entry): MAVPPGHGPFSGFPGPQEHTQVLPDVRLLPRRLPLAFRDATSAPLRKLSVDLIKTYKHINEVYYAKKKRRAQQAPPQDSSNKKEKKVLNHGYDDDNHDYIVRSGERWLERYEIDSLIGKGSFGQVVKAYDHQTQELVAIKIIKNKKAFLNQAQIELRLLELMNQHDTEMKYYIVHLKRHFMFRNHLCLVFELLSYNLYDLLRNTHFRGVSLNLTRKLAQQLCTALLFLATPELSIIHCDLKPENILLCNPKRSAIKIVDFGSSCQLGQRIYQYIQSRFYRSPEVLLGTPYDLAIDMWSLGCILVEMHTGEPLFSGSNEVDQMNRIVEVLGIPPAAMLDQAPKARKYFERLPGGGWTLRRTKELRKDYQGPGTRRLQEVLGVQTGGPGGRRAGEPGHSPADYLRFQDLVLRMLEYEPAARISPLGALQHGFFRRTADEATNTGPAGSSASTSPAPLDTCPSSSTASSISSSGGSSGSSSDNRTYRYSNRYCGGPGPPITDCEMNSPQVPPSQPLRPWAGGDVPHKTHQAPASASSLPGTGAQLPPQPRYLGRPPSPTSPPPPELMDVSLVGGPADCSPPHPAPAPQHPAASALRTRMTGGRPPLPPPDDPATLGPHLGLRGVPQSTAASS
Tyrosine-protein kinase Fyn, sequence (P06241 whole entry): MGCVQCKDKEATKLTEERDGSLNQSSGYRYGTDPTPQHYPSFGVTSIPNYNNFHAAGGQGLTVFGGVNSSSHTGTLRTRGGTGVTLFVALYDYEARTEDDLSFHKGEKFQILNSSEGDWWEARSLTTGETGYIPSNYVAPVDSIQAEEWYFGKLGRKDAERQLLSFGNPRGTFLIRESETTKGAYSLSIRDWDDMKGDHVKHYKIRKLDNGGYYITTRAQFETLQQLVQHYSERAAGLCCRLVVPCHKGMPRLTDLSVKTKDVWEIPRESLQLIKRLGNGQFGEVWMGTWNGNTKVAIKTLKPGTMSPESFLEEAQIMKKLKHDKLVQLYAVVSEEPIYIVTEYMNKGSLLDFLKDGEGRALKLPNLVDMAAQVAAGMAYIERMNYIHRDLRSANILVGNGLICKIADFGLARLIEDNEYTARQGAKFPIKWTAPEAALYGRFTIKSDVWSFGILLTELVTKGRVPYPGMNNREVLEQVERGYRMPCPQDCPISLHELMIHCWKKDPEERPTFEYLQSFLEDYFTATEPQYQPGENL
Mitogen-activated protein kinase 8, sequence (P45983 whole entry): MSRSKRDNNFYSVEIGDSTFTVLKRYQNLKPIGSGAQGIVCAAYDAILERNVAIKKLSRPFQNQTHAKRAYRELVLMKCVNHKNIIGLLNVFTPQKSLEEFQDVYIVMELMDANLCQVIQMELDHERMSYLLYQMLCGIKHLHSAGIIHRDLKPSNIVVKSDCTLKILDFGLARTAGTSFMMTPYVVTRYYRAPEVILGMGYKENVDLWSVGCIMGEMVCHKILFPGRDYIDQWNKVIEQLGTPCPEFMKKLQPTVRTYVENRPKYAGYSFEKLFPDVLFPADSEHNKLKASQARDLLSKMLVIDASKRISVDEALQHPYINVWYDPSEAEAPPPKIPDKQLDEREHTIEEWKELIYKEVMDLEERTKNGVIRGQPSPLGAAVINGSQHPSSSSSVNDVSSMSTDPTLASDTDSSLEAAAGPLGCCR
Rho-associated protein kinase 1, sequence (Q13464 whole entry): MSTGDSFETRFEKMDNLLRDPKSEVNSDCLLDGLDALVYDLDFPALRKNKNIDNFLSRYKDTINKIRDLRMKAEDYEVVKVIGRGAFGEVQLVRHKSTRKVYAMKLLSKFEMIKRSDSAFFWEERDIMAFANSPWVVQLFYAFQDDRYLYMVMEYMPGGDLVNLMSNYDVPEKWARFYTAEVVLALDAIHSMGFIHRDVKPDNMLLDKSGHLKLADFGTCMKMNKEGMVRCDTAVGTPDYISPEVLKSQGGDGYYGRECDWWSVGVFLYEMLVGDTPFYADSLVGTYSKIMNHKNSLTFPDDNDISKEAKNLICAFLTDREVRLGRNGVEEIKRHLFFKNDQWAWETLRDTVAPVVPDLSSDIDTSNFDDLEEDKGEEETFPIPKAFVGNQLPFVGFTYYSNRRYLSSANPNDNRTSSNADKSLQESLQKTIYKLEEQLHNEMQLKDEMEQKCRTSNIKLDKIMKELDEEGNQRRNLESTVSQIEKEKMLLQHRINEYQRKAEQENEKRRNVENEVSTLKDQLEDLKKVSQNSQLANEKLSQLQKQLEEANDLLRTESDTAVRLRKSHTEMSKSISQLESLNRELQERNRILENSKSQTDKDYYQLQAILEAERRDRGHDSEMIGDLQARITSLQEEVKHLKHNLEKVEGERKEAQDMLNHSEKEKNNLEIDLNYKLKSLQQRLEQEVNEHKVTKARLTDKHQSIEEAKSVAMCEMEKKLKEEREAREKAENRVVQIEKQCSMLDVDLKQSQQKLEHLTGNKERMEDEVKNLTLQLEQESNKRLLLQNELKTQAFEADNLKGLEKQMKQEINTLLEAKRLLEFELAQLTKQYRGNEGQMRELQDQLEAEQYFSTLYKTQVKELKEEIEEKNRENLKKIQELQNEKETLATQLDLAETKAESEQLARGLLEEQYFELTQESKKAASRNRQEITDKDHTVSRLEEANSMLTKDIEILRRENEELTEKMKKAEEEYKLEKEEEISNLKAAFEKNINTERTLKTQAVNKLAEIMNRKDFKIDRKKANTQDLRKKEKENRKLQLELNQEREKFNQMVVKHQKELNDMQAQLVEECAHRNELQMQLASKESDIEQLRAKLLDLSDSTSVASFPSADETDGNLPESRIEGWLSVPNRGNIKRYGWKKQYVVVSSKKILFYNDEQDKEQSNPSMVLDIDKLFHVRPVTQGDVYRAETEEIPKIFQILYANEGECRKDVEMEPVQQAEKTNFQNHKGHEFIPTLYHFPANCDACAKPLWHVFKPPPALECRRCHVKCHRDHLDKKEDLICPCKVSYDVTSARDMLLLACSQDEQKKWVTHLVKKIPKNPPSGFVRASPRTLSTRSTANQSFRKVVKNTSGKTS
Death-associated protein kinase 3, sequence (O43293 whole entry): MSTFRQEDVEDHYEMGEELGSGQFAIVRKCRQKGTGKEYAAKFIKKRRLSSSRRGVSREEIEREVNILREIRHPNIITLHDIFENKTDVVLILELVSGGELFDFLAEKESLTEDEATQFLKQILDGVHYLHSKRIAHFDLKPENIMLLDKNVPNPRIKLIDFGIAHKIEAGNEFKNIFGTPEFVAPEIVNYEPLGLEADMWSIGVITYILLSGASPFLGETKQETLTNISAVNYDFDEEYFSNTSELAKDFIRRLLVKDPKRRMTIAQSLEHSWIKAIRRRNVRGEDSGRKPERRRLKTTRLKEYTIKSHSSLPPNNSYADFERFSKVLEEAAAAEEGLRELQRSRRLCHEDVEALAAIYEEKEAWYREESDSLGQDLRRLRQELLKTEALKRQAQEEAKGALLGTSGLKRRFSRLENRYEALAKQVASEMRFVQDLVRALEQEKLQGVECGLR
Dual specificity protein kinase CLK4, sequence (Q9HAZ1 whole entry): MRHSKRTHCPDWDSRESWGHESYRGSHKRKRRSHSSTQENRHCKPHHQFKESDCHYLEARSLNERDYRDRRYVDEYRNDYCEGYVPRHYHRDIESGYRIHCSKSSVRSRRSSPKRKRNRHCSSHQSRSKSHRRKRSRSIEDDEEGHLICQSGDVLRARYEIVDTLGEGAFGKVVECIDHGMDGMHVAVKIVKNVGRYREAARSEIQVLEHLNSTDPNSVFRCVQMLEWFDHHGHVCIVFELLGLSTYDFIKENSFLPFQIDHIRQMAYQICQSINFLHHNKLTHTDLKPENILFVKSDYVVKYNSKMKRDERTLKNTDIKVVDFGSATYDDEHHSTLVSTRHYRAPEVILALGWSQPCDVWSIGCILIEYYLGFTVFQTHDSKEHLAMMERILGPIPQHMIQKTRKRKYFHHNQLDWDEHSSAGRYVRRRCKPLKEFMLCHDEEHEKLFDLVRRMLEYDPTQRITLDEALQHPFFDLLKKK
Serine/threonine-protein kinase pim-1, sequence (P11309 whole entry): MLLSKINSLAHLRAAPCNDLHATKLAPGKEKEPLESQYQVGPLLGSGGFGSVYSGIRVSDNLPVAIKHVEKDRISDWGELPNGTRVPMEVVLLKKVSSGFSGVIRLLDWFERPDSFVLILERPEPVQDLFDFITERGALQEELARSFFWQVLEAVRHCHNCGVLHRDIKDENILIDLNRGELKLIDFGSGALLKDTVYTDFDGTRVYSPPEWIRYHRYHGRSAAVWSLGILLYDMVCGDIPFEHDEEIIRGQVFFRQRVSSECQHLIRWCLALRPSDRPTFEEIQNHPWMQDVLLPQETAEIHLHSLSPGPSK

O=C(Nc1n[nH]c2ccc(-c3cn(Cc4ccccc4)nn3)cc12)c1cc(F)ccc1F
Ki [1]: > 6.31 µM (inactive) | Ki [2]: 0.00501 µM (active) | Ki [3]: > 2 µM (inactive) | Ki [4]: 0.01 µM (active) | Ki [5]: 3.98 µM (active) | Ki [6]: 0.501 µM (active) | Ki [7]: > 3.98 µM (inactive) | Ki [8]: > 3.16 µM (inactive) | Ki [9]: > 6.31 µM (inactive) | Ki [10]: 3.16 µM (active) | Ki [11]: > 3.98 µM (inactive) | Ki [12]: 0.0501 µM (active) | Ki [13]: > 6.31 µM (inactive) | Ki [14]: > 6.31 µM (inactive)

CS(=O)(=O)Nc1ccc(Nc2ccc3[nH]nc(N)c3c2)cc1
Ki [1]: > 6.31 µM (inactive) | Ki [2]: 1.26 µM (active) | Ki [3]: 1.58 µM (active) | Ki [4]: 0.501 µM (active) | Ki [5]: > 6.31 µM (inactive) | Ki [6]: > 5.01 µM (inactive) | Ki [7]: 2.51 µM (active) | Ki [8]: 2 µM (active) | Ki [9]: > 6.31 µM (inactive) | Ki [10]: > 5.01 µM (inactive) | Ki [11]: 3.16 µM (active) | Ki [12]: > 5.01 µM (inactive) | Ki [13]: > 6.31 µM (inactive) | Ki [14]: > 6.31 µM (inactive)

CS(=O)(=O)N(Cc1ccc2[nH]c(=O)c3cccn3c2c1)C1CC1
Ki [1]: > 3.98 µM (inactive) | Ki [2]: > 2.51 µM (inactive) | Ki [3]: > 6.31 µM (inactive) | Ki [4]: > 6.31 µM (inactive) | Ki [5]: > 5.01 µM (inactive) | Ki [6]: > 3.16 µM (inactive) | Ki [7]: > 3.98 µM (inactive) | Ki [8]: > 6.31 µM (inactive) | Ki [9]: > 3.16 µM (inactive) | Ki [10]: > 3.16 µM (inactive) | Ki [11]: > 2 µM (inactive) | Ki [12]: > 3.16 µM (inactive) | Ki [13]: > 3.16 µM (inactive) | Ki [14]: > 3.16 µM (inactive)
